In patent publication US20250040554A1, “NEW USES OF PHENMEDIPHAM AND HERBICIDAL COMBINATIONS COMPRISING PHENMEDIPHAM” (BAYER AKTIENGESELLSCHAFT, priority 2021, published 2025):

Experiments:
[1] = test system: corn (Zea mays subsp. amylacea, ZEAMA); test: Greenhouse selectivity trial, post-emergence, corn; type: in vivo; conditions: 8 DAA
Excerpt: (§1) The respective (combinations of) materials were applied to weed plants in the greenhouse or in the field at the respective growth stage indicated hereinafter for the different weed species mentioned below. The respective (combinations of) active ingredients were also applied to corn, cotton and soybean crop plants, and the selectivity (damage) in these crop plants rated (assessed).
(§2) Visual scoring of the damage to the trial plants took place after the time mentioned in the respective Table—indicated in number of Days After Application (DAA). Damage and development of all above-ground parts of the respective plants was recorded. Visual rating was done on a percentage scale in relation to the untreated control (100%=all plants dead; 50%=green plant biomass reduced by 50%, and 0%=no discernible difference=like control plot).
(§3) The trials in the greenhouse were sprayed with an application volume of 300 L/ha with an automated track sprayer. The plots in the field were sprayed with an application volume of 140 L/ha with a hand held spray boom.
(§4) In greenhouse selectivity trials and trials herbicidal activity trials against weed plants were investigated in post-emergence application of the respective material(s).
(§5) Phenmedipham was applied at varying application rates (Dose Rate) to the crop plants of corn (Zea mays subsp. amylacea, ZEAMA), soybean (Glycine max, GLXMA) and cotton (Gossypium hirsutum, GOSHI) at a BBCH growth stage of the plants of BBCH 13 and the crop safety (crop injury, damage) assessed. The results are shown in Table 1 as the % damage when assessed 8 days after application (8 DAA).
(§6) In all the selectivity trials of Table 1 the adjuvant Mero® (rapeseed oil methyl ester) was added to the respective spray mixture in an amount corresponding to 1 L/ha.

[2] = test system: soybean (Glycine max, GLXMA); test: Greenhouse selectivity trial, post-emergence, soybean; type: in vivo; conditions: 8 DAA
Excerpt: as §1, §2, §3, §4, §5, §6

[3] = test system: cotton (Gossypium hirsutum, GOSHI); test: Greenhouse selectivity trial, post-emergence, cotton; type: in vivo; conditions: 8 DAA
Excerpt: as §1, §2, §3, §4, §5, §6

soybean (GLXMA) = test: Damage in soybean in the field trials of Tables 4a to 4e; type: in vivo, Glycine max; conditions: PMP applied to GLXMA at growth stage BBCH 14, field trials of Tables 4a to 4e, each case
Procedure: In the field trials of Tables 4a to 4e also the damage in soybean was assessed when PMP was applied to GLXMA at growth stage BBCH 14. The damage observed in each case was agronomically acceptable, i.e. below 15%.

## COC(=O)Nc1cccc(OC(=O)Nc2cccc(C)c2)c1 [PMP, 3-[(methoxyformyl)amino]phenyl (3-methylphenyl)carbamate]
[1]; 12.5 g/ha
  % damage ZEAMA (corn): 0%
[1]; 25 g/ha
  % damage ZEAMA (corn): 0%
[1]; 75 g/ha
  % damage ZEAMA (corn): 7%
[1]; 125 g/ha
  % damage ZEAMA (corn): 0%
[1]; 200 g/ha
  % damage ZEAMA (corn): 15%
[1]; 300 g/ha
  % damage ZEAMA (corn): 30%
[2]; 12.5 g/ha
  % damage GLXMA (soybean): 2%
[2]; 25 g/ha
  % damage GLXMA (soybean): 3%
[2]; 75 g/ha
  % damage GLXMA (soybean): 0%
[2]; 125 g/ha
  % damage GLXMA (soybean): 5%
[2]; 200 g/ha
  % damage GLXMA (soybean): 18%
[2]; 300 g/ha
  % damage GLXMA (soybean): 20%
[3]; 12.5 g/ha
  % damage GOSHI (cotton): 0%
[3]; 25 g/ha
  % damage GOSHI (cotton): 0%
[3]; 75 g/ha
  % damage GOSHI (cotton): 3%
[3]; 125 g/ha
  % damage GOSHI (cotton): 6%
[3]; 200 g/ha
  % damage GOSHI (cotton): 6%
[3]; 300 g/ha
  % damage GOSHI (cotton): 14%
Soybean (GLXMA)
  damage in soybean: below 15%
